Data: ChEMBL document CHEMBL3991601, “The target landscape of clinical kinase drugs” (Science, 2017)
Calls of active or inactive are those of the source.

Experiments:
[1] = target: Maternal embryonic leucine zipper kinase (Homo sapiens, UniProt Q14680)
[2] = target: Atypical kinase COQ8A, mitochondrial (Homo sapiens, UniProt Q8NI60)
[3] = target: T1, Serine/threonine-protein kinase PLK4 (Homo sapiens, UniProt O00444)
T1 sequence (O00444 whole entry): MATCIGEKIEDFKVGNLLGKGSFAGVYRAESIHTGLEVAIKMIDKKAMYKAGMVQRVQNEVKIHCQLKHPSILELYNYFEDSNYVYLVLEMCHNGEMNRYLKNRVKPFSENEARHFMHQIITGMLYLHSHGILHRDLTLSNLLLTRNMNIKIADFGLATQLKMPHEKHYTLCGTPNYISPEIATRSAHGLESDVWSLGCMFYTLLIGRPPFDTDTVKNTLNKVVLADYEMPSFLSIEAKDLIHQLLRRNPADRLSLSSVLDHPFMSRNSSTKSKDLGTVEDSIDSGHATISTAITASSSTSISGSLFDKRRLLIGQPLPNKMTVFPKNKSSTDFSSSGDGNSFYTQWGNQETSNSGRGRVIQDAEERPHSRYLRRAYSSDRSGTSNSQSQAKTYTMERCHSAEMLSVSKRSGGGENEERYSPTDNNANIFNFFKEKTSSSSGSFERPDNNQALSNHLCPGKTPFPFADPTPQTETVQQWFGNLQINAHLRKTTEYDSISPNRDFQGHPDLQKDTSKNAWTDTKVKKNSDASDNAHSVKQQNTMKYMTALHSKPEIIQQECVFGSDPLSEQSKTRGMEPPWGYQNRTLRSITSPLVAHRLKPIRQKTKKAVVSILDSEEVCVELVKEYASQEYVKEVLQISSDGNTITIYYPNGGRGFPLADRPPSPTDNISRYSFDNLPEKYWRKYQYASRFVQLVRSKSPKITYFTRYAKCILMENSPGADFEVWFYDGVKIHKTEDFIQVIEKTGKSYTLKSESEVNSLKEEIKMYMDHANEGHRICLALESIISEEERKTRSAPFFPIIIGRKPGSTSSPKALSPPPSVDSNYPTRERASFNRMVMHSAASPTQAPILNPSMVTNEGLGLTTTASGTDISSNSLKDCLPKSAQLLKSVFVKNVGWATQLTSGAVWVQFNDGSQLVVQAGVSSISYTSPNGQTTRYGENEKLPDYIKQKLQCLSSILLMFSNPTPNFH

[4] = target: T2, ATP-dependent 6-phosphofructokinase, platelet type (Homo sapiens, UniProt Q01813)
T2 sequence (Q01813 whole entry): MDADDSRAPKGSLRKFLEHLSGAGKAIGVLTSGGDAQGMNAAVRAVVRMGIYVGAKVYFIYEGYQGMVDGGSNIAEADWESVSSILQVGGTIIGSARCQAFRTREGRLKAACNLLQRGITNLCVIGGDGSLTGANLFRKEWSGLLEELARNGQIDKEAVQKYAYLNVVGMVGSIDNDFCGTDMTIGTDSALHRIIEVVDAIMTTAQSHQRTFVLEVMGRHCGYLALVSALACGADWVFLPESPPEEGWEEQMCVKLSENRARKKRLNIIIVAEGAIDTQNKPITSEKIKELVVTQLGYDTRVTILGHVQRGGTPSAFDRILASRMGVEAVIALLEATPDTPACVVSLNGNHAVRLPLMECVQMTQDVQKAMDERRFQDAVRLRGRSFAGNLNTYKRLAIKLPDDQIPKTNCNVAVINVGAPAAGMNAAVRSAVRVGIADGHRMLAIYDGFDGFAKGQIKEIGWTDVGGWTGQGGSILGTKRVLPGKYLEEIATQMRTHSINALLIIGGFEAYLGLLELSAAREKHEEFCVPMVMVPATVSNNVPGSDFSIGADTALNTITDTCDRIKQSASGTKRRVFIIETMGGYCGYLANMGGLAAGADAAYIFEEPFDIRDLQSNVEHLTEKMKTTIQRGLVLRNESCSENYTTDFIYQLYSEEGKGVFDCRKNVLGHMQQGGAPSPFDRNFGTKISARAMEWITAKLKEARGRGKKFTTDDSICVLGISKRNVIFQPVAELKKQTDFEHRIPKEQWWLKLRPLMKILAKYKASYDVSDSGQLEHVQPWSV

[5] = target: Platelet-derived growth factor receptor beta (Homo sapiens, UniProt P09619)
Sequence of Platelet-derived growth factor receptor beta (P09619 whole entry): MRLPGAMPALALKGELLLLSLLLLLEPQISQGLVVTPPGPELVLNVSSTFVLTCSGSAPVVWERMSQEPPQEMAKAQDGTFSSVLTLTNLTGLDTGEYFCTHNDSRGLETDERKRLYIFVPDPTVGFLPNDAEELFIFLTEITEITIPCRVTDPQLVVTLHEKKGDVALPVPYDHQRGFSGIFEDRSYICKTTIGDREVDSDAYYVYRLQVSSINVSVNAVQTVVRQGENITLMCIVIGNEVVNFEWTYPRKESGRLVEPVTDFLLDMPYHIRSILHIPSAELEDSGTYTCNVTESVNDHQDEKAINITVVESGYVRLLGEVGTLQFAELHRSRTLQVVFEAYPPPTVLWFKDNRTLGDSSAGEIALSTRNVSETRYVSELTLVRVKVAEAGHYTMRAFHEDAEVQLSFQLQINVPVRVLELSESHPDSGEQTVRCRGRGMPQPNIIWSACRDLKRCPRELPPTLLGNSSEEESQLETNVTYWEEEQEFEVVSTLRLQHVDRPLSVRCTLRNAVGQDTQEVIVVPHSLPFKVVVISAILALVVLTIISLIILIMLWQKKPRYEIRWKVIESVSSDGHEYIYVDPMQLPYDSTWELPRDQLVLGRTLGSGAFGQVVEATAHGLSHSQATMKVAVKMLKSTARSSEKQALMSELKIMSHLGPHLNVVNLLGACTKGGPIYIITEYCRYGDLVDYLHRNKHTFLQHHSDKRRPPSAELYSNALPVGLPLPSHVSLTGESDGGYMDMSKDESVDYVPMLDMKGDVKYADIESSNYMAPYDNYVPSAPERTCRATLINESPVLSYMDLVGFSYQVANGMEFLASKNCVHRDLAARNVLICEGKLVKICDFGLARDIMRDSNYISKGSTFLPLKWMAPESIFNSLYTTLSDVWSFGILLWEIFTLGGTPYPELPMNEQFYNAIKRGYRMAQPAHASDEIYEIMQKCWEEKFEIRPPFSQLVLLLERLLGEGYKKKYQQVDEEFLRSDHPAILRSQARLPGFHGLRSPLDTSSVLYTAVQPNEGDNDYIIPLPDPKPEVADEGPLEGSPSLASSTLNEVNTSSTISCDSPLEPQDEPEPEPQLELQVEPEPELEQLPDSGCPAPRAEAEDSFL

[6] = target: Serine/threonine-protein kinase MRCK alpha (Homo sapiens, UniProt Q5VT25)
Sequence of Serine/threonine-protein kinase MRCK alpha (Q5VT25 whole entry): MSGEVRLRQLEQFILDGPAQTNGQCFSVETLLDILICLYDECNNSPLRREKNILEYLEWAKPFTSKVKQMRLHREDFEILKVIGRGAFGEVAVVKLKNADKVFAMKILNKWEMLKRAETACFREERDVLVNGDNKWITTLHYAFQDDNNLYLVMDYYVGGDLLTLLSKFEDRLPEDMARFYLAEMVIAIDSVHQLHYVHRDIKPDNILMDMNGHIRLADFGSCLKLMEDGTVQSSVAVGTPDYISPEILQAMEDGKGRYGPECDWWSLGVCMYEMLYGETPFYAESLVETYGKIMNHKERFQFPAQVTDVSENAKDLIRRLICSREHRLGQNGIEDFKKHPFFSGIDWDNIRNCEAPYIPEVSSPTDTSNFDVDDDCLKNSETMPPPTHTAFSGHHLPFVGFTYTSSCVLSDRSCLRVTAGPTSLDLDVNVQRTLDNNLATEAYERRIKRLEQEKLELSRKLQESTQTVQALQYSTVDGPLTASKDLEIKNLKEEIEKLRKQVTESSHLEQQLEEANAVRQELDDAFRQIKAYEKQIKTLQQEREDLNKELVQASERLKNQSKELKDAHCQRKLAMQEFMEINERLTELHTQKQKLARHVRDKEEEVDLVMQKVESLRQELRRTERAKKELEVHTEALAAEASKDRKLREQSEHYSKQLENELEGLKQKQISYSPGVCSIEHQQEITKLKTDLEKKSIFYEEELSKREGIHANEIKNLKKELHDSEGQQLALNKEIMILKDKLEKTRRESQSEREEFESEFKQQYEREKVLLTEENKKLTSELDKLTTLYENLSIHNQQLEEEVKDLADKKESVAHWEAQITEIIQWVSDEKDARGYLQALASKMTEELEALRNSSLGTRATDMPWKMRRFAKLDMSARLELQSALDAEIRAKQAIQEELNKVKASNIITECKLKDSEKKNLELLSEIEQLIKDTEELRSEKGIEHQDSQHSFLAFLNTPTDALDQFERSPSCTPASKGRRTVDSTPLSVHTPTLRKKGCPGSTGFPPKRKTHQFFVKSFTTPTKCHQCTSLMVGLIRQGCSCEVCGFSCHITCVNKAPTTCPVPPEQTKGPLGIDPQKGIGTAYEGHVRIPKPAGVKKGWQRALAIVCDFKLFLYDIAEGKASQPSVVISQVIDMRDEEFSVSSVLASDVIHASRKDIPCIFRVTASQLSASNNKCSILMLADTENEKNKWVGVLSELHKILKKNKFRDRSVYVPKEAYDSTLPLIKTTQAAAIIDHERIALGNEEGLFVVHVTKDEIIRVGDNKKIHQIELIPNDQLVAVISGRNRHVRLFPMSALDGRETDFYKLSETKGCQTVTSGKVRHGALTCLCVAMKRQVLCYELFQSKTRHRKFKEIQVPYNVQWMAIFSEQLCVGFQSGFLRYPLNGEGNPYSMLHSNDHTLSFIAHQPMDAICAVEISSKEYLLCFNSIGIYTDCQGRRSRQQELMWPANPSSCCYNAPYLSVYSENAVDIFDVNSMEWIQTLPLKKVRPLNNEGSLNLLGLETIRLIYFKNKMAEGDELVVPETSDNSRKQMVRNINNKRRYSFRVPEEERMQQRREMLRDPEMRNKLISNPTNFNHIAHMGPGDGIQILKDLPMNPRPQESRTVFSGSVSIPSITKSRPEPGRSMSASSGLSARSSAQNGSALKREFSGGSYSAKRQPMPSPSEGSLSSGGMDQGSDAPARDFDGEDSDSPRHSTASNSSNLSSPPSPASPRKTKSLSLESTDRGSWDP

[7] = target: Serine/threonine-protein kinase PAK 4 (Homo sapiens, UniProt O96013)
[8] = target: U5 small nuclear ribonucleoprotein 200 kDa helicase (Homo sapiens, UniProt O75643)
Sequence of U5 small nuclear ribonucleoprotein 200 kDa helicase (O75643 whole entry): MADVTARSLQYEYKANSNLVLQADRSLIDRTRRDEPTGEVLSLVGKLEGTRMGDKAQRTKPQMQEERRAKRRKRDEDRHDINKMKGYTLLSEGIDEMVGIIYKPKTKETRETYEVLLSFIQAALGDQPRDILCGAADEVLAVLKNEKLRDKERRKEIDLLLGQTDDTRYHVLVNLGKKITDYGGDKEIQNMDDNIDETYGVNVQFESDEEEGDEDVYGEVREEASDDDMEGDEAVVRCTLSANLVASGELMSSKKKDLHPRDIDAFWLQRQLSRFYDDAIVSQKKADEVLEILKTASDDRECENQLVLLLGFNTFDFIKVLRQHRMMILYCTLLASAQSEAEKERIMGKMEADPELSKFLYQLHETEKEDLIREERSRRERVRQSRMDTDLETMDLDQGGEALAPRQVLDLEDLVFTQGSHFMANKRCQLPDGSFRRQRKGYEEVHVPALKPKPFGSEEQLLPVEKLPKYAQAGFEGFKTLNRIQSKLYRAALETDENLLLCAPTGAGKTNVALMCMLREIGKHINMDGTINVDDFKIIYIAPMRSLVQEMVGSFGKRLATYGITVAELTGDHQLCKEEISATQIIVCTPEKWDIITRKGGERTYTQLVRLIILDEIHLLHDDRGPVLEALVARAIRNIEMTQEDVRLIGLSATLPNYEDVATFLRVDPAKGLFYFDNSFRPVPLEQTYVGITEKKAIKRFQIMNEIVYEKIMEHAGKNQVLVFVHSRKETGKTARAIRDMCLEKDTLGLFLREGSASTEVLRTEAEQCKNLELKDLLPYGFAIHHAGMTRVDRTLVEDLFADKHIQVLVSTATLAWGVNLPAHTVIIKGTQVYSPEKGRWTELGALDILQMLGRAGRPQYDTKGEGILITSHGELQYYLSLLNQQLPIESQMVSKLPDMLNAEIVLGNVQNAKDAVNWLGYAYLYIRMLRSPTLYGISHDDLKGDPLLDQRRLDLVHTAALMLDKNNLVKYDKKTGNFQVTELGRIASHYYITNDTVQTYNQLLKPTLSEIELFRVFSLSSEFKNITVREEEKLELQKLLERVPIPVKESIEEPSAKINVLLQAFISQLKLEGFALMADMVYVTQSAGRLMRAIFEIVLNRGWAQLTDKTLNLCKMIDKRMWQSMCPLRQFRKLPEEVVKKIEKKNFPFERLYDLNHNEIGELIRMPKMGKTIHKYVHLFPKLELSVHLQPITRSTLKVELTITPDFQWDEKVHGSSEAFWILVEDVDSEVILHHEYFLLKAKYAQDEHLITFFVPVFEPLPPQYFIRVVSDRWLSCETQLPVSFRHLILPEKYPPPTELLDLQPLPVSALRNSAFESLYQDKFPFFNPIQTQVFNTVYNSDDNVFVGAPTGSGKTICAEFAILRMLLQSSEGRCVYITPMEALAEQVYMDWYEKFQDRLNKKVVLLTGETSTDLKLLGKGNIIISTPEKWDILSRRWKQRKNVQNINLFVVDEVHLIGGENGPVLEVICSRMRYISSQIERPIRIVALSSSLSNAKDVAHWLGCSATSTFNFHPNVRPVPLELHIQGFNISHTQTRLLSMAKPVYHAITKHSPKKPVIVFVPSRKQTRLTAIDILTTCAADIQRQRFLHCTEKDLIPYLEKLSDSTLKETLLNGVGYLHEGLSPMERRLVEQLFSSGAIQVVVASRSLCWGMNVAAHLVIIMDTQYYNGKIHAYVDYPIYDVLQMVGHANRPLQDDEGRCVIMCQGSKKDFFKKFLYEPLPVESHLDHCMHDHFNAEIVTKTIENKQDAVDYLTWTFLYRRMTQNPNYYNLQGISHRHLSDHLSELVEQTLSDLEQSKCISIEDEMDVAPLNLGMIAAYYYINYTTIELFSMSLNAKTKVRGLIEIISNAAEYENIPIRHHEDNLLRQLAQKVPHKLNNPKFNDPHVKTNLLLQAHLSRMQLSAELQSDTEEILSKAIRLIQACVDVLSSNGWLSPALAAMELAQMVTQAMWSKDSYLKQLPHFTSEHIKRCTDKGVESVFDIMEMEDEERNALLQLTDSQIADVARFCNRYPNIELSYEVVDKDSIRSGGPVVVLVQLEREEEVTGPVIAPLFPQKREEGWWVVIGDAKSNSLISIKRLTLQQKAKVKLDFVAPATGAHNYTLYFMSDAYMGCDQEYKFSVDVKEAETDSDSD

[9] = target: cAMP-dependent protein kinase catalytic subunit beta (Homo sapiens, UniProt P22694)
DNA topoisomerase 2-beta = DNA topoisomerase 2-beta (Homo sapiens, UniProt Q02880)
[10] = target: T3, Delta(24)-sterol reductase (Homo sapiens, UniProt Q15392)
T3 sequence (Q15392 whole entry): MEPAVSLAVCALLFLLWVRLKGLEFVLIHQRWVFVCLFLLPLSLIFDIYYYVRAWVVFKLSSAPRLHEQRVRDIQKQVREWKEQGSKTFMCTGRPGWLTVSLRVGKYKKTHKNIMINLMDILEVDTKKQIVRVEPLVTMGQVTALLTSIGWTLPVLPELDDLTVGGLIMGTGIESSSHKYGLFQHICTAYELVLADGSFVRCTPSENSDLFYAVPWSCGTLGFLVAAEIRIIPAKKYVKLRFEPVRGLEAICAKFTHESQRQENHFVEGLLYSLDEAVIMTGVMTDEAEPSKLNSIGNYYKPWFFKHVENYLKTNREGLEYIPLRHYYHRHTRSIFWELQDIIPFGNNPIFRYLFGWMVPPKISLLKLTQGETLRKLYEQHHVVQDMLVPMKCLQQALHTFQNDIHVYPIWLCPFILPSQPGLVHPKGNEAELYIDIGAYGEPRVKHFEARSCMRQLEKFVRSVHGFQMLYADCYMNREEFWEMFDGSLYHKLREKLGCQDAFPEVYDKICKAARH

[11] = target: Casein kinase II subunit alpha' (Homo sapiens, UniProt P19784)
[12] = target: NADH dehydrogenase [ubiquinone] 1 alpha subcomplex subunit 13 (Homo sapiens, UniProt Q9P0J0)
Sequence of NADH dehydrogenase [ubiquinone] 1 alpha subcomplex subunit 13 (Q9P0J0 whole entry, one chain of several): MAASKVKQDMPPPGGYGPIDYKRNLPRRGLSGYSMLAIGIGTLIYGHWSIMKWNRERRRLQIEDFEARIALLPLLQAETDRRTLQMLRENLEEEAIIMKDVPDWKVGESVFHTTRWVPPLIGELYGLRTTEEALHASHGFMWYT
Note: in the data inactive means no Kd found up to 30 µM.

CN(C[C@@H]1COCCO1)S(=O)(=O)Nc1ccc2ccc3ncc(-c4cnn(C)c4)cc3c(=O)c2c1 [MK-2461]
Kd [1]: > 30 µM (inactive)
Kd [2]: > 30 µM (inactive)
Kd [3]: > 30 µM (inactive)
Kd [4]: > 30 µM (inactive)
Kd [5]: 0.543 µM
Kd [6]: > 30 µM (inactive)
Kd [7]: > 30 µM (inactive)
Kd [8]: > 30 µM (inactive)
Kd [9]: > 30 µM (inactive)
Kd (DNA topoisomerase 2-beta): > 30 µM (inactive)
Kd [10]: > 30 µM (inactive)
Kd [11]: > 30 µM (inactive)
Kd [12]: > 30 µM (inactive)

FC(F)(F)c1ccc(/C=C/c2nc(COc3ccc(CCCCn4ccnn4)cc3)co2)cc1 [MUBRITINIB]
Kd [1]: > 30 µM (inactive)
Kd [2]: > 30 µM (inactive)
Kd [3]: > 30 µM (inactive)
Kd [4]: > 30 µM (inactive)
Kd [5]: > 30 µM (inactive)
Kd [6]: > 30 µM (inactive)
Kd [7]: > 30 µM (inactive)
Kd [8]: > 30 µM (inactive)
Kd [9]: > 30 µM (inactive)
Kd (DNA topoisomerase 2-beta): > 30 µM (inactive)
Kd [10]: > 30 µM (inactive)
Kd [11]: > 30 µM (inactive)
Kd [12]: > 30 µM (inactive)

COc1ncc(-c2ccc3nccc(-c4ccnnc4)c3c2)cc1NS(=O)(=O)c1ccc(F)cc1F [OMIPALISIB]
Kd [1]: > 30 µM (inactive)
Kd [2]: > 30 µM (inactive)
Kd [3]: > 30 µM (inactive)
Kd [4]: > 30 µM (inactive)
Kd [5]: > 30 µM (inactive)
Kd [6]: > 30 µM (inactive)
Kd [7]: > 30 µM (inactive)
Kd [8]: > 30 µM (inactive)
Kd [9]: > 30 µM (inactive)
Kd (DNA topoisomerase 2-beta): > 30 µM (inactive)
Kd [10]: > 30 µM (inactive)
Kd [11]: > 30 µM (inactive)
Kd [12]: > 30 µM (inactive)

CCOc1cc2ncc(C#N)c(Nc3ccc(F)c(Cl)c3)c2cc1NC(=O)/C=C/CN(C)C [PELITINIB]
Kd [1]: > 30 µM (inactive)
Kd [2]: > 30 µM (inactive)
Kd [3]: > 30 µM (inactive)
Kd [4]: > 30 µM (inactive)
Kd [5]: > 30 µM (inactive)
Kd [6]: > 30 µM (inactive)
Kd [7]: > 30 µM (inactive)
Kd [8]: > 30 µM (inactive)
Kd [9]: > 30 µM (inactive)
Kd (DNA topoisomerase 2-beta): > 30 µM (inactive)
Kd [10]: > 30 µM (inactive)
Kd [11]: > 30 µM (inactive)
Kd [12]: > 30 µM (inactive)

CCCCCCCCCCCCCCCCCCOP(=O)([O-])OC1CC[N+](C)(C)CC1 [PERIFOSINE]
Kd [1]: > 30 µM (inactive)
Kd [2]: > 30 µM (inactive)
Kd [3]: > 30 µM (inactive)
Kd [4]: > 30 µM (inactive)
Kd [5]: > 30 µM (inactive)
Kd [6]: > 30 µM (inactive)
Kd [7]: > 30 µM (inactive)
Kd [8]: > 30 µM (inactive)
Kd [9]: > 30 µM (inactive)
Kd (DNA topoisomerase 2-beta): > 30 µM (inactive)
Kd [10]: > 30 µM (inactive)
Kd [11]: > 30 µM (inactive)
Kd [12]: > 30 µM (inactive)

Cc1cnc(NC(=O)Nc2cc(Br)c(C)cc2OC[C@@H]2CNCCO2)cn1 [RABUSERTIB]
Kd [1]: > 30 µM (inactive)
Kd [2]: > 30 µM (inactive)
Kd [3]: > 30 µM (inactive)
Kd [4]: > 30 µM (inactive)
Kd [5]: > 30 µM (inactive)
Kd [6]: > 30 µM (inactive)
Kd [7]: > 30 µM (inactive)
Kd [8]: > 30 µM (inactive)
Kd [9]: > 30 µM (inactive)
Kd (DNA topoisomerase 2-beta): > 30 µM (inactive)
Kd [10]: > 30 µM (inactive)
Kd [11]: > 30 µM (inactive)
Kd [12]: > 30 µM (inactive)

CNC(=O)c1cc(Oc2ccc(NC(=O)Nc3cc(C(C)(C)C)nn3-c3ccc4ncccc4c3)c(F)c2)ccn1 [REBASTINIB]
Kd [1]: > 30 µM (inactive)
Kd [2]: > 30 µM (inactive)
Kd [3]: 4.09 µM (active)
Kd [4]: > 30 µM (inactive)
Kd [5]: > 30 µM (inactive)
Kd [6]: > 30 µM (inactive)
Kd [7]: > 30 µM (inactive)
Kd [8]: > 30 µM (inactive)
Kd [9]: > 30 µM (inactive)
Kd (DNA topoisomerase 2-beta): > 30 µM (inactive)
Kd [10]: > 30 µM (inactive)
Kd [11]: > 30 µM (inactive)
Kd [12]: > 30 µM (inactive)

N#CC1(c2ccc(NC(=O)c3cccnc3NCc3ccncc3)cc2)CCCC1 [RIVOCERANIB]
Kd [1]: > 30 µM (inactive)
Kd [2]: > 30 µM (inactive)
Kd [3]: > 30 µM (inactive)
Kd [4]: > 30 µM (inactive)
Kd [5]: > 30 µM (inactive)
Kd [6]: > 30 µM (inactive)
Kd [7]: > 30 µM (inactive)
Kd [8]: > 30 µM (inactive)
Kd [9]: > 30 µM (inactive)
Kd (DNA topoisomerase 2-beta): > 30 µM (inactive)
Kd [10]: > 30 µM (inactive)
Kd [11]: > 30 µM (inactive)
Kd [12]: > 30 µM (inactive)

O=c1[nH]ccc2cc(OC3CCNCC3)ccc12 [SAR-407899 FREE BASE]
Kd [1]: > 30 µM (inactive)
Kd [2]: > 30 µM (inactive)
Kd [3]: > 30 µM (inactive)
Kd [4]: > 30 µM (inactive)
Kd [5]: > 30 µM (inactive)
Kd [6]: 0.01 µM (active)
Kd [7]: > 30 µM (inactive)
Kd [8]: > 30 µM (inactive)
Kd [9]: > 30 µM (inactive)
Kd (DNA topoisomerase 2-beta): > 30 µM (inactive)
Kd [10]: > 30 µM (inactive)
Kd [11]: > 30 µM (inactive)
Kd [12]: > 30 µM (inactive)

CO[C@H]1C[C@@H]2CC[C@@H](C)[C@@](O)(O2)C(=O)C(=O)N2CCCC[C@H]2C(=O)O[C@H]([C@H](C)C[C@@H]2CC[C@@H](OC(=O)C(C)(CO)CO)[C@H](OC)C2)CC(=O)[C@H](C)/C=C(\C)[C@@H](O)[C@@H](OC)C(=O)[C@H](C)C[C@H](C)/C=C/C=C/C=C/1C [TEMSIROLIMUS]
Kd [1]: > 30 µM (inactive)
Kd [2]: > 30 µM (inactive)
Kd [3]: > 30 µM (inactive)
Kd [4]: > 30 µM (inactive)
Kd [5]: > 30 µM (inactive)
Kd [6]: > 30 µM (inactive)
Kd [7]: > 30 µM (inactive)
Kd [8]: > 30 µM (inactive)
Kd [9]: > 30 µM (inactive)
Kd (DNA topoisomerase 2-beta): > 30 µM (inactive)
Kd [10]: > 30 µM (inactive)
Kd [11]: > 30 µM (inactive)
Kd [12]: > 30 µM (inactive)

COc1cc2c(Nc3ccc(Cl)c(Cl)c3F)ncnc2cc1OC[C@@H]1C[C@@H]2CN(C)C[C@@H]2C1 [TESEVATINIB]
Kd [1]: > 30 µM (inactive)
Kd [2]: > 30 µM (inactive)
Kd [3]: > 30 µM (inactive)
Kd [4]: > 30 µM (inactive)
Kd [5]: > 30 µM (inactive)
Kd [6]: > 30 µM (inactive)
Kd [7]: > 30 µM (inactive)
Kd [8]: > 30 µM (inactive)
Kd [9]: > 30 µM (inactive)
Kd (DNA topoisomerase 2-beta): > 30 µM (inactive)
Kd [10]: > 30 µM (inactive)
Kd [11]: > 30 µM (inactive)
Kd [12]: > 30 µM (inactive)
